Test results: patent US4521419A, “Condensed cycloaliphatic derivatives of substituted pyrido[1,2-a]pyrimidines and methods of treating allergic conditions, peptic ulcers and inhibiting gastric acid secretion with them” (Farmitalia Carlo Erba S.p.A., priority 1982, dated 1985)

Columns and labels:
[1] = acute toxicity (LD50) in the mouse; details: in vivo, po, per os, single administration of increasing doses, measured on the seventh day after treatment, read-out: approximate acute toxicity (LD50)
Description: (§1) One of the preferred compounds of the invention having antisecretory activity is, for example, the compound 3-(2-methyl-benzylidene)-1,2,3,10-tetrahydro-10-oxo-10H-cyclopenta[d]pyrido[1,2-a]pyrimidine-7-carboxylic acid, which has an approximate ED25 value of 10 mg/kg in the above test in the rat, after intraduodenal administration. In view of their high therapeutic index the compounds of the invention can be safely used in medicine. For example, the approximate acute toxicity (LD50) of the compounds 3-benzylidene-1,2,3,10-tetrahydro-10-oxo-cyclopenta[d]pyrido[1,2-a]pyrimidine-7-carboxylic acid, 3-(2-methyl-benzylidene)-1,2,3,10-tetrahydro-10-oxo-10H-cyclopenta[d]pyrido[1,2-a]pyrimidine-7-carboxylic acid and 4-benzylidene-1,2,3,4-tetrahydro-11-oxo-11H-pyrido[2,1-b]quinazoline-8-carboxylic acid, in the mouse, determined with single administration of increasing doses and measured on the seventh day after the day of treatment, is per os higher than 800 mg/kg. Analogous toxicity data have been found for the other compounds of the invention.

restraint ulcers in rats = assay: inhibition of restraint ulcers in rats (Bonfils et al.); assay type: in vivo; details: po, 1 h; rat, per os one hour before immobilization; approximate value; read-out: Anti-ulcerogenic activity ED50
Description: (§2) For example, in the above test in the rat the compound FCE 21273 gives about a 30% inhibition of RPAR reaction when administered orally at a dosage of 100 mg/kg. The compounds of the present invention, furthermore, are active on the gastroenterical system, in particular they are endowed with anti-ulcerogenic and anti-secretory activity and are therefore useful in therapy, for example, in the prevention and treatment of peptic, e.g., duodenal, gastric and esophageal, ulcers and to inhibit gastric acid secretion. The anti-ulcerogenic activity of the compounds of the invention is shown, e.g., by the fact that they are active in the test of inhibition of restraint ulcers in rats, according to the method of Bonfils et al. (Therapie, 1960, 15, 1096; Jap. J.Pharmac. 1968, 18, 9).
The tested compound was administered per os (p.o.) one hour before the immobilization.
Six Sprague-Dawley male rats (100-120 g) fasted 24 hours were used for the experiment: a square flexible small-mesh wire netting was used for the immobilization and 4 hours after the immobilization the rats were sacrificed, their stomachs were removed and the lesions counted under a dissecting microscope.

[2] = test system: gastric secretion in rats; assay: inhibition of gastric secretion in rats (H. Shay et al.); assay type: in vivo; details: rat, intraduodenal administration; read-out: antisecretory activity, approximate ED25
Description: as §1

rat peritoneal cells = assay: A 23187 induced SRS production from rat peritoneal cells; assay type: cell-based; details: in vitro, FCE 21273 at 1 mcg/ml
Source text: (1) test of A 23187 induced SRS production from rat peritoneal cells, according to M. K. Bach and J. R. Brashler (J. Immunol., 113, 2040, 1974);

[3] = test system: Reversed Passive Arthus Reaction (RPAR); assay: Reversed Passive Arthus Reaction (RPAR) in the rat; assay type: in vivo; details: administered orally at 100 mg/kg
Source text: Furthermore the compounds of this invention are effective in vivo, for example, in inhibiting the Reversed Passive Arthus Reaction (RPAR) which is a model of immune-complex induced inflammatory reaction initiated by the interaction of antigen and antibody resulting in the formation of precipitating immune-complex, followed by complement fixation and accumulation of PMN in the focal site (D. K. Gemmell, J. Cottney and A. J. Lewis, Agents and Actions 9/1 page 107, 1979).
as §2

chopped guinea-pig lung = assay: antigen induced SRS production from chopped guinea-pig lung; assay type: cell-based; details: Cavia porcellus, in vitro, FCE 21273 at 10 mcg/ml
Source text: (2) test of antigen induced SRS production from chopped guinea-pig lung, according to W. E. Brocklehurst (J. Physiol., 151, 416, 1960); and in vivo

O=C(O)c1ccc2nc3c(c(=O)n2c1)CCC3=Cc1ccccc1 [3-benzylidene-1,2,3,10-tetrahydro-10-oxo-cyclopenta[d]pyrido[1,2-a]pyrimidine-7-carboxylic acid]
LD50 at 168 h [1]: > 800 mg/kg | ED50 (restraint ulcers in rats): 12 mg/kg

Cc1ccccc1C=C1CCc2c1nc1ccc(C(=O)O)cn1c2=O [3-(2-methyl-benzylidene)-1,2,3,10-tetrahydro-10-oxo-cyclopenta[d]pyrido[1,2-a]pyrimidine-7-carboxylic acid]
ED25 [2]: ~10 mg/kg | LD50 at 168 h [1]: > 800 mg/kg

O=C(O)c1ccc2nc3c(c(=O)n2c1)CCCC3=Cc1ccccc1 [FCE 21273, 4-benzylidene-1,2,3,4-tetrahydro-11-oxo-11H-pyrido[2,1-b]quinazoline-8-carboxylic acid]
inhibition at 1 µg/mL (rat peritoneal cells): 50% | LD50 at 168 h [1]: > 800 mg/kg | inhibition of RPAR reaction [3]: ~30% | inhibition at 10 µg/mL (chopped guinea-pig lung): 47%
